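Step 1: Grow cells in 96-well plates. Step 2: Expose to compound for 48 hours at 5 concentrations. Step 3: Interpolate endpoints linearly; if unreached, use highest concentration. TGI: total growth inhibition.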
How the values were obtained:
Assay in all cases: NCI tumour cell line growth inhibition, 48 h
[1] = system: UO-31 renal
[2] = system: HOP-62 NSCLC
[3] = system: 786-0 renal
[4] = system: SNB-75 CNS
[5] = system: ACHN renal
[6] = system: RPMI-8226 leukemia
[7] = system: UACC-257 melanoma
[8] = system: NCI-H23 lung
[9] = system: SK-MEL-2 melanoma
[10] = system: A549 NSCLC
[11] = system: NCI-H460 lung
[12] = system: HOP-92 NSCLC
[13] = system: SR leukemia
[14] = system: NCI/ADR-RES ovarian
[15] = system: KM12 colon
[16] = system: K-562 leukemia
[17] = system: PC-3 prostate
[18] = system: DU-145 prostate
[19] = system: BT-549 breast
[20] = system: SK-MEL-28 melanoma
[21] = system: OVCAR-8 ovarian
[22] = system: HCT-116 colon
[23] = system: MOLT-4 leukemia
[24] = system: SF-539 CNS
[25] = system: MDA-N
[26] = system: IGROV1 ovarian
[27] = system: SNB-19 CNS
[28] = system: NCI-H522 lung
[29] = system: COLO 205 colon
[30] = system: MCF7 breast
[31] = system: SK-MEL-5 melanoma
[32] = system: U251 CNS
[33] = system: LOX IMVI melanoma
[34] = system: M14 melanoma
[35] = system: OVCAR-5 ovarian
[36] = system: MALME-3M melanoma
[37] = system: HT29 colon
[38] = system: CAKI-1 renal
[39] = system: TK-10 renal
[40] = system: MDA-MB-435
[41] = system: OVCAR-4 ovarian
[42] = system: T-47D breast
[43] = system: SF-295 CNS
[44] = system: CCRF-CEM leukemia
[45] = system: EKVX NSCLC
[46] = system: SK-OV-3 ovarian
[47] = system: A498 renal
[48] = system: UACC-62 melanoma
[49] = system: SN12C renal
[50] = system: RXF 393 renal
[51] = system: OVCAR-3 ovarian
[52] = system: NCI-H226 lung
[53] = system: SF-268 CNS
[54] = system: HS 578T breast
[55] = system: MDA-MB-231 breast
[56] = system: SW-620 colon
[57] = system: HCC-2998 colon
[58] = system: HCT-15 colon
[59] = system: HL-60(TB) leukemia

Measured: TGI

CC1(C)[C@@H]2CC[C@@]1(C)CN(CCC[N+](C)(C)C)C2
> 100 µM: [1] | [2] | [3] | [4] | [5] | [6] | [7] | [8] | [9] | [10] | [11] | [12] | [13] | [14] | [15] | [16] | [17] | [18] | [19] | [20] | [21] | [22] | [23] | [24] | [25] | [26] | [27] | [28] | [29] | [30] | [31] | [32] | [33] | [34] | [35] | [36] | [37] | [38] | [39] | [40] | [41] | [42] | [43] | [44] | [45] | [46] | [47] | [48] | [49] | [50] | [51] | [52] | [53] | [54] | [55] | [56] | [57] | [58]

C=CCc1cc(-c2nc(=S)[nH][nH]2)ccc1N=NNc1ccc(C(=O)O)cc1
60.1 µM: [31]
73.8 µM: [19]
> 100 µM: [1] | [2] | [3] | [4] | [5] | [6] | [7] | [8] | [9] | [59] | [10] | [12] | [13] | [14] | [15] | [16] | [17] | [18] | [20] | [21] | [22] | [23] | [25] | [26] | [27] | [28] | [30] | [32] | [33] | [34] | [35] | [36] | [37] | [38] | [39] | [40] | [41] | [43] | [44] | [45] | [46] | [47] | [49] | [50] | [51] | [52] | [53] | [54] | [55] | [56] | [58]
58 µM: [29]
70.2 µM: [42]

NC(N)=NCCCC(=O)O
> 100 µM: [1] | [2] | [3] | [4] | [5] | [6] | [8] | [9] | [59] | [10] | [11] | [12] | [13] | [14] | [15] | [16] | [17] | [18] | [19] | [20] | [21] | [22] | [23] | [24] | [25] | [26] | [27] | [28] | [29] | [30] | [31] | [32] | [33] | [34] | [35] | [36] | [37] | [38] | [39] | [40] | [41] | [42] | [43] | [44] | [45] | [46] | [47] | [48] | [49] | [50] | [51] | [52] | [53] | [54] | [55] | [56] | [58]
